{
  "source": "patent US20040198605A1",
  "about": "“Growth promoter for gramineous plants” (priority 2001, published 2004)",
  "key": {"[1]": {"system": "Seedlings of lawns (western lawns; Evergreen Lawn Grass)", "assay": "Hydroponics (water culture) of lawns, serine sprinkled over the surfaces of leaves", "format": "in vivo", "settings": "26th day", "experimental": "Seedlings of lawns (western lawns; Evergreen Lawn Grass) were raised and were divided into two groups, A and B, each consisting of 60 seedlings so as to carry out water culture. A given amount of a liquid fertilizer was added to a water culture solution, to which inosine was then added to a concentration of 0.2 ppm. The testing period started on Oct. 6, 1999 and ended on Nov. 1, 1999 (26 days). Group A was set as a control area. As for Group B, 5 ml of a solution so prepared as to have a serine concentration of 20 ppm was sprinkled over the surfaces of leaves every day over a period of 15 days. On the 26th day, the weight of 5 average grown seedlings selected from each group was measured."}, "[2]": {"system": "Lawn sods (bent grass; breed name: BENCROSS)", "assay": "Soil culture of lawns, leaf surface sprinkling test", "format": "in vivo", "settings": "for Weight of Cut Stem/Leaf after Dried (mean of three pots) / Weight of Cut Stem/Leaf after Dried (individual pots): cut on 77th day; for Weight of Cut Stem/Leaf after Dried (individual pots): three pots", "experimental": "Lawn sods having a diameter of 4 cm and a thickness of 3 cm (bent grass; breed name: BENCROSS) were each planted in 1/50 m^2 Wagner pots, and a leaf surface sprinkling test was carried out on a group of three pots. To the soil of each pot, a chemical fertilizer (12-8-10) was add-mixed as the initial fertilizer in an amount of 1 g/pot. Serine was diluted with water to the concentrations shown in the following Table 1 and sprinkled by means of a sprinkler on the 10th day and 24th day after planting. On the 77th day after planting, the plant parts exposed on the ground were cut, and the weight thereof after dried was measured."}, "[3]": {"settings": "5 ml of serine 20 ppm sprinkled on leaves daily for 15 days, inosine 0.2 ppm in water culture solution, 5 average seedlings"}},
  "note": "Where “and” joins values, the source holds several entries; their conditions need not be identical. Equal values may be shown once.",
  "data": [
    {"compound": "N[C@@H](CO)C(=O)O", "note": "[Serine, serine]", "values": [
      {"measurement": "Average Leaf Length", "setting": "[1]; [3]", "result": 22, "unit": "cm"},
      {"measurement": "Root Length", "setting": "[1]; [3]", "result": 4.1, "unit": "cm"},
      {"measurement": "Root length, leaf length and total weight in the raw state (in words)", "setting": "[1]; serine-treated area", "result": "good"},
      {"measurement": "Total Weight in Raw State", "setting": "[1]; total of above-ground portions and roots of 5 undried lawn plants, serine 20 ppm on leaves daily for 15 days, inosine 0.2 ppm in water culture", "result": 0.35, "unit": "g"},
      {"measurement": "Weight of Cut Stem/Leaf after Dried (mean of three pots)", "setting": "[2]; serine 18.3 ppm sprinkled on 10th and 24th day", "result": "2.27 ± 0.12", "unit": "g/pot"},
      {"measurement": "Weight of Cut Stem/Leaf after Dried (individual pots)", "setting": "[2]; serine 18.3 ppm sprinkled on leaf surfaces on 10th and 24th day after planting", "result": "2.17 g/pot and 2.43 g/pot and 2.20 g/pot"},
      {"measurement": "Percentage (dried weight, Control = 100)", "setting": "[2]; serine 18.3 ppm, 77th day, * statistically significant difference", "result": "185*"},
      {"measurement": "Weight of Cut Stem/Leaf after Dried (mean of three pots)", "setting": "[2]; serine 183 ppm sprinkled on 10th and 24th day", "result": "1.27 ± 0.16", "unit": "g/pot"},
      {"measurement": "Weight of Cut Stem/Leaf after Dried (individual pots)", "setting": "[2]; serine 183 ppm sprinkled on leaf surfaces on 10th and 24th day after planting", "result": "1.26 g/pot and 1.47 g/pot and 1.08 g/pot"},
      {"measurement": "Percentage (dried weight, Control = 100)", "setting": "[2]; serine 183 ppm, 77th day", "result": 104},
      {"measurement": "Growth (in words)", "setting": "[2]; serine-treated areas, particularly 18.3 ppm-treated areas, 77th day", "result": "good growth was observed"}
    ]}
  ]
}
